Values quoted from earlier work, collected in US20090312358A1, “METHOD FOR MANAGEMENT OF DIARRHEA” (TRUSTEES OF BOSTON UNIVERSITY, priority 2006, published 2009).
Like-named read-outs stand apart in the source and are kept apart here.

Experiments:
[1] = for time to peak plasma levels: after oral administration; for elimination half-life: in vivo
[2] = repeated dosing in mice
[3] = oral
[4] = for antidiarrheal potency relative to codeine: compared to codeine
[5] = compared to methylnaltrexone

## CN(C)C(=O)C(CCN1CCC(O)(c2ccc(Cl)cc2)CC1)(c1ccccc1)c1ccccc1 [loperamide, Loperamide]
[1]
  time to peak plasma levels: 3 to 5 h
  elimination half-life: 9 to 14 h
[2]
  development of tolerance to antimotility effects: two
[3]; acute diarrhea
  time to achieve symptomatic control of acute diarrhea: 9 to 20 h

## C=C1CC[C@@]2(O)[C@H]3Cc4ccc(O)c5c4[C@@]2(CCN3CC2CC2)[C@H]1O5 [nalmefene, Nalmefene]
[1]
  elimination half-life: approximately 11 hours

## CN1CC[C@]23c4c5ccc(O)c4O[C@H]2[C@@H](O)C=C[C@H]3[C@H]1C5 [morphine]
[2]
  development of tolerance to antimotility effects: not observed

## COc1ccc2c3c1O[C@H]1[C@@H](O)C=C[C@H]4[C@@H](C2)N(C)CC[C@@]341 [codeine]
[1]
  elimination half-life: ~3 h

## CCOC(=O)C1(c2ccccc2)CCN(CCC(C#N)(c2ccccc2)c2ccccc2)CC1 [diphenoxylate]
[1]
  time to peak plasma levels: approximately 2 hours
[4]
  antidiarrheal potency relative to codeine: fifteen

## C[C@H]1CN(C[C@H](Cc2ccccc2)C(=O)NCC(=O)O)CC[C@@]1(C)c1cccc(O)c1 [alvimopan, Alvimopan]
[5]
  potency in reversing the effects of morphine in the gastrointestinal tract relative to methylnaltrexone: approximately 200 times

## N#CC(CCN1CCC(C(=O)O)(c2ccccc2)CC1)(c1ccccc1)c1ccccc1 [difenoxin]
[1]; healthy volunteers
  apparent half-life of difenoxin produced by de-esterification of diphenoxylate: approximately 50 minutes
[1]
  elimination half-life: 7 to 12 h
[4]
  antidiarrheal potency relative to codeine: seventy-seven
[4]; compared to diphenoxylate
  antidiarrheal potency relative to diphenoxylate: five

## C[N@+]1(CC2CC2)CC[C@]23c4c5ccc(O)c4O[C@H]2C(=O)CC[C@@]3(O)[C@H]1C5 [methylnaltrexone, Methylnaltrexone]
[1]
  elimination half-life: 3 h
[1]; listed as Methylnaltrexone
  elimination half-life: 2 to 3 h
[3]; opioid bowel dysfunction
  time to restore normal bowel function: 4 to 7 h

## O=C1CC[C@@]2(O)[C@H]3Cc4ccc(O)c5c4[C@@]2(CCN3CC2CC2)[C@H]1O5 [naltrexone, Naltrexone]
[1]
  time to peak plasma levels: about 1 hours
